The source of these data is patent publication US4093714A, “9β-D-Arabinofuranosylpurine nucleotides and method of use” (ICN Pharmaceuticals, Inc., priority 1974, dated 1978).

Where two headings read alike, the source gives them in different places.

In data set [1] the test system is Type 1 Herpes Simplex Virus. The format is cell-based. The conditions noted are these: cell culture, three days, VR >0.5 definite, <0.5 slight antiviral activity.
In data set [2] the test system is Type 2 Herpes Simplex Virus. The format is cell-based. The conditions noted are these: cell culture, three days, VR >0.5 definite, <0.5 slight antiviral activity.
Another data set has as its system Vaccinia Virus. Format: cell-based. The conditions noted are these: cell culture, three days, VR >0.5 definite, <0.5 slight antiviral activity.
The subject of another data set is equine abortion virus. The conditions noted are these: for Infected, Treated Surv/Total: 21 days observation; for Toxicity Control Surv/Total: twice daily for four days; for Survival Increase p: Fisher's exact test; for Infected, Treated Mean Survival Time: animals dying on or before day 21; for Mean Surv. Increase p: t test.
The conditions of data set [3]: cited from earlier work.
The conditions of data set [4]: clinical testing as antiviral agent; cited from earlier work.
Data set [5] relates to spectrum of virus infections. The conditions noted are these: cited from earlier work.
For data set [6], the system named is Herpes simplex, strain 123. Briefly: Anti-herpes encephalitis activity in mice, intraperitoneal treatment. The conditions noted are these: for Percent Survivor Number Increase: twice daily for 8 days from 4 hr post virus, 21 days; for Survivor Increase P: probability value (chi square analysis).
The conditions of data set [7]: eventually to uric acid; cited from earlier work.

As for `O=c1c2ncn([C@@H]3O[C@H](COP(=O)(O)O)[C@@H](O)[C@@H]3O)c2ncn1O` [9-β-D-Arabinofuranosyl-N^1-hydroxyhypoxanthine-5'-phosphate], the “virus rating (VR)” value is reported as 0.2-0.7 in data set [1], 0.0-0.6 in data set [2] and 0.1-0.4 in the data set with Vaccinia Virus.
Consider `Nc1ncnc2c1ncn2[C@@H]1O[C@H](CO)[C@@H](O)[C@@H]1O` [9-β-D-Arabinofuranosyladenine, 9-β-D-arabinofuranosyladenine], for which the “Infected, Treated Surv/Total” value is given as 8/9 in the data set on equine abortion virus (Expt. 1, 125 mg/kg/day i.p.); 0.8 in the data set on equine abortion virus (Expt. 1, 250 mg/kg/day i.p.); 10/10 in the data set on equine abortion virus (Expt. 2, 62.5 mg/kg/day i.p.); 3/10 with equine abortion virus (Expt. 2, 250 mg/kg/day i.p.). In addition, the “Toxicity Control Surv/Total” value in the data set with equine abortion virus (Expt. 1, 125 mg/kg/day i.p.) was 2/2; with equine abortion virus (Expt. 1, 250 mg/kg/day i.p.), 2/3; in the data set with equine abortion virus (Expt. 2, 250 mg/kg/day i.p.) it was 2/3. Moreover, the “Survival Increase p” value in the data set on equine abortion virus (Expt. 1, 125 mg/kg/day i.p.) is recorded as less than 0.001; with equine abortion virus (Expt. 2, 62.5 mg/kg/day i.p.), less than 0.001; in the data set on equine abortion virus (Expt. 2, 250 mg/kg/day i.p.), 0.09. Also, the “Infected, Treated Mean Survival Time” value in the data set with equine abortion virus (Expt. 1, 125 mg/kg/day i.p.) is 13 days; in the data set with equine abortion virus (Expt. 1, 250 mg/kg/day i.p.), 9.2 days; in the data set on equine abortion virus (Expt. 2, 62.5 mg/kg/day i.p.), greater than 21 days; with equine abortion virus (Expt. 2, 250 mg/kg/day i.p.) it was 12 days. The “Mean Surv. Increase p” value in the data set on equine abortion virus (Expt. 1, 250 mg/kg/day i.p.) is recorded as less than 0.001; with equine abortion virus (Expt. 2, 62.5 mg/kg/day i.p.), less than 0.001; in the data set with equine abortion virus (Expt. 2, 250 mg/kg/day i.p.), less than 0.001. Also, the “solubility (in words)” value in data set [3] is recorded as “low solubility”. For the same molecule, the human toxic symptoms result in data set [4] was “mild nausea, transient leukopenia and central nervous system involvement which causes illusions and hallucinations”. Moreover, the reported antiviral effectiveness entry in data set [5] is recorded as “effective agent against a spectrum of virus infections”. The results for the “Percent Survivor Number Increase” value in data set [6] (62.5 mg/kg/day i.p.), in data set [6] (125 mg/kg/day i.p.) and in data set [6] (250 mg/kg/day i.p.) were 0%, 30% and 40%, respectively. In addition, the “Survivor Increase P” value was greater than 0.03 in [6] (62.5 mg/kg/day i.p.), less than 0.05 in data set [6] (125 mg/kg/day i.p.) and less than 0.05 in [6] (250 mg/kg/day i.p.). Besides, the “Survivors/Total (Toxicity Controls)” value in data set [6] (250 mg/kg/day i.p., twice daily for 8 days, 21 days observation) was 5/5. Also, the “effectiveness of ara-A compared with ara-IMP” value in [6] (i.p., Table II) is recorded as “less effective”.
Turning to `O=c1[nH]cnc2c1ncn2[C@@H]1O[C@@H]2COP(=O)(O)O[C@H]2[C@@H]1O` [9-β-D-Arabinofuranosylhypoxanthine-3' ,5'-cyclic phosphate], the entries for the “virus rating (VR)” value (in data set [1]; in the data set on Vaccinia Virus) were 0.7-1.1 and 0.7, respectively.
As to `O=c1[nH]cnc2c1ncn2[C@@H]1O[C@H](CO)[C@@H](OP(=O)(O)O)[C@@H]1O` [9-β-D-Arabinofuranosylhypoxanthine-3'-phosphate], in data set [1], the “virus rating (VR)” value came to 1.0.
With `COP(=O)(O)OC[C@H]1O[C@@H](n2cnc3c(=O)[nH]cnc32)[C@@H](O)[C@@H]1O` [9-β-D-Arabinofuranosylhypoxanthine-5'-O-methylphosphate], the “virus rating (VR)” value in [1] is 0.4-0.7; in data set [2], 0.0; in the data set with Vaccinia Virus, 0.4.
As for `Nc1ncnc2c1ncn2[C@@H]1O[C@H](COP(=O)(O)O)[C@@H](O)[C@@H]1O` [9-β-D-arabinofuranosyladenine-5'-phosphate], the “virus rating (VR)” value in [1] was 1.3. Also, the metabolic degradation entry in data set [7] is “rapidly degraded in the metabolic system (eventually to uric acid)”.
As to `O=c1[nH]c(=O)n([C@H]2C[C@H](O)[C@@H](CO)O2)cc1I` [IDU, 5'-iodo-2'-deoxyuridine], in data set [3], the maximum solubility entry is “about 0.1 weight percent” and the “solubility (in words)” value was “extremely low solubility”.
